As usually defined, the IC50 is the concentration that inhibits the measured activity by half. Lower therefore signals inhibition by little substance.

Results on 21 compounds are retold here after patent publication US9839629B2, “Inhibitors of the renal outer medullary potassium channel” (Merck Sharp & Dohme Corp., priority 2013, dated 2017).

The target of this test is T1, ROMK (Kir1.1) channel (Homo sapiens, UniProt P48048).
T1 sequence (P48048 1-391): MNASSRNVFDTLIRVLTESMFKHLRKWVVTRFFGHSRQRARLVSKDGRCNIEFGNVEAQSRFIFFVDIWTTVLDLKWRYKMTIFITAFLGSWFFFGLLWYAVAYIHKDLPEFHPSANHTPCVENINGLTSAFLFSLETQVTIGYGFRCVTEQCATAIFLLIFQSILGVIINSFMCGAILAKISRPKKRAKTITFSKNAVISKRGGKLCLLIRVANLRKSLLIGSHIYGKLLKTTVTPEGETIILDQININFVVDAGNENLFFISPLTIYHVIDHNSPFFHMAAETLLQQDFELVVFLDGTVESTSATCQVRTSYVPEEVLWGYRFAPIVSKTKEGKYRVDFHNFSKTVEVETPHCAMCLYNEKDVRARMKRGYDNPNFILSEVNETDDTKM
Kind of test: Thallium Flux Assay. It is filed as cell-based. The protocol: A Thallium Flux Assay was performed on each of the final product compounds in the Examples. When the final product of an Example was an HCl salt, the salt was run in the Assay. This assay has been described previously; see, e.g., PCT Published Application WO 2013/062900.
Take `CO[C@H](CN1CCC2(CC1)CCN(C1=CC(=O)OC1)CC2)c1ccc2c(c1C)COC2=O` [Example 90, (S)-5-(1-methoxy-2-(9-(5-oxo-2,5-dihydrofuran-3-yl)-3,9-diazaspiro[5.5]undecan-3-yl)ethyl)-4-methylisobenzofuran-1(3H)-one]: the IC50 was 165 nM. Regarding `Cc1nc(-n2cnnn2)ccc1[C@@H](O)CN1CCC2(CC1)CCN(C1=CC(=O)OC1)C(=O)O2` [Example 31, (R)-9-(2-hydroxy-2-(2-methyl-6-(1H-tetrazol-1-yl)pyridin-3-yl)ethyl)-3-(5-oxo-2,5-dihydrofuran-3-yl)-1-oxa-3,9-diazaspiro[5.5]undecan-2-one], 65 nM corresponded to half-maximal inhibition (IC50).

`Cc1c([C@@H](O)CN2CCC3(CC2)CCN(C2=CC(=O)OC2)CC3)ccc2c1COC2=O` [Example 8, (R)-5-(1-hydroxy-2-(9-(5-oxo-2,5-dihydrofuran-3-yl)-3,9-diazaspiro[5.5]undecan-3-yl)ethyl)-4-methylisobenzofuran-1(3H)-one] displayed an IC50 of 49 nM.

`O=C1C=C(N2CCC3(CCN(C(=O)Cc4ccc(-n5cnnn5)cc4)CC3)CC2)CO1` [Example 102, 4-(9-{[4-(1H-tetrazol-1-yl)phenyl]acetyl}-3,9-diazaspiro[5.5]undec-3-yl)furan-2(5H)-one] yielded an IC50 of 116 nM. The compound `CO[C@@H]1CN(C2=C(C)C(=O)OC2)CCC12CCN(C[C@H](O)c1ccc3c(c1C)COC3=O)CC2` [Example 98, 5-{(1R)-1-hydroxy-2-[(7S)-7-methoxy-9-(4-methyl-5-oxo-2,5-dihydrofuran-3-yl)-3,9-diazaspiro[5.5]undec-3-yl]ethyl}-4-methyl-2-benzofuran-1(3H)-one] returned a half-maximal inhibitory concentration (IC50) of 53 nM. In turn, `CC1=C(N2CCC3(CCN(C[C@@H](O)c4ccc(-n5cnnn5)nc4C)CC3)CC2)CCC1=O` [Example 75, (S)-3-(9-(2-hydroxy-2-(2-methyl-6-(1H-tetrazol-1-yl)pyridin-3-yl)ethyl)-3,9-diazaspiro[5.5]undecan-3-yl)-2-methylcyclopent-2-enone] showed an IC50 of 279 nM. Next, `Cc1c([C@@H](O)CN2CCC3(CC2)CCN(C2=CC(=O)OC2)C(=O)C3)ccc2c1COC2=O` [Example 27, (R)-9-(2-hydroxy-2-(4-methyl-1-oxo-1,3-dihydroisobenzofuran-5-yl)ethyl)-3-(5-oxo-2,5-dihydrofuran-3-yl)-3,9-diazaspiro[5.5]undecan-2-one]: 433 nM. `Cc1nc(-n2cnnn2)ccc1[C@@H](O)CN1CCC2(CC1)CCN(C1=CC(=O)OC1)CC2` [Example 13, (R)-4-(9-(2-hydroxy-2-(2-methyl-6-(1H-tetrazol-1-yl)pyridin-3-yl)ethyl)-3,9-diazaspiro[5.5]undecan-3-yl)furan-2(5H)-one]: the IC50 came to 14 nM. Next, `Cc1c([C@@H](O)CN2CCC3(CC2)CCN(C2=C(c4ccncc4)C(=O)OC2)CC3)ccc2c1COC2=O` [Example 42, (R)-5-(1-hydroxy-2-(9-(5-oxo-4-(pyridin-4-yl)-2,5-dihydrofuran-3-yl)-3,9-diazaspiro[5.5]undecan-3-yl)ethyl)-4-methylisobenzofuran-1(3H)-one]: 352 nM. To `Cc1c([C@@H](O)CN2CCC3(CC2)CCN(c2c(C)c(=O)c2=O)CC3)ccc2c1COC2=O` [Example 78, (R)-3-(9-(2-hydroxy-2-(4-methyl-1-oxo-1,3-dihydroisobenzofuran-5-yl)ethyl)-3,9-diazaspiro[5.5]undecan-3-yl)-4-methylcyclobut-3-ene-1,2-dione] belongs 30 nM. To `CC1=C(N2CCC3(CCN(C[C@@H](O)c4ccc(-n5cnnn5)cn4)CC3)CC2)COC1=O` [Example 52, (R)-4-(9-(2-(5-(1H-tetrazol-1-yl)pyridin-2-yl)-2-hydroxyethyl)-3,9-diazaspiro[5.5]undecan-3-yl)-3-methylfuran-2(5H)-one] belongs 37 nM; to `Cc1c(N2CCC3(CCN(C[C@@H](O)c4cnc(-n5cnnn5)cn4)CC3)CC2)c(=O)c1=O` [Example 86, (R)-3-(9-(2-(5-(1H-tetrazol-1-yl)pyrazin-2-yl)-2-hydroxyethyl)-3,9-diazaspiro[5.5]undecan-3-yl)-4-methylcyclobut-3-ene-1,2-dione], 336 nM; to `CC1=C(N2CCC3(CCN(C[C@H](O)c4ccc5c(c4C)COC5=O)CC3)CC2)CCC1=O` [Example 76, (R)-5-(1-hydroxy-2-(9-(2-methyl-3-oxocyclopent-1-en-1-yl)-3,9-diazaspiro[5.5]undecan-3-yl)ethyl)-4-methylisobenzofuran-1(3H)-one], 109 nM. `Cc1c(N2CCC3(CCN(C[C@@H](O)c4ccc5c(ccc6nnnn65)c4)CC3)CC2)c(=O)c1=O` [Example 89, (S)-3-(9-(2-hydroxy-2-(tetrazolo[1,5-a]quinolin-7-yl)ethyl)-3,9-diazaspiro[5.5]undecan-3-yl)-4-methylcyclobut-3-ene-1,2-dione] had an IC50 of 257 nM. To `Cc1c(N2CCC3(CCN(C[C@H](O)c4cnc(-n5cnnn5)cn4)CC3)CC2)c(=O)c1=O` [Example 85, (S)-3-(9-(2-(5-(1H-tetrazol-1-yl)pyrazin-2-yl)-2-hydroxyethyl)-3,9-diazaspiro[5.5]undecan-3-yl)-4-methylcyclobut-3-ene-1,2-dione] belongs 80 nM; to `Cc1nc(-n2cnnn2)ccc1[C@@H](O)CN1CCC2(CC1)CCN(C1=C(C3CC3)C(=O)OC1)CC2` (stereo in doubt) [Example 43, 3-cyclopropyl-4-(9-(2-hydroxy-2-(2-methyl-6-(1H-tetrazol-1-yl)pyridin-3-yl)ethyl)-3,9-diazaspiro[5.5]undecan-3-yl)furan-2(5H)-one], 16 nM.

The compound `O=C1C=C(N2CCC3(CCN(C(=O)C4CCc5cc(-n6cnnn6)ncc54)CC3)CC2)CO1` (stereo not drawn) [Example 103, 4-(9-{[3-(1H-tetrazol-1-yl)-6,7-dihydro-5H-cyclopenta[c]pyridin-7-yl]carbonyl}-3,9-diazaspiro[5.5]undec-3-yl)furan-2(5H)-one] had a half-maximal inhibitory concentration (IC50) of 132 nM. Next, `COCO[C@@H]1CN(C2=C(C)C(=O)OC2)CCC12CCN(C[C@H](O)c1ccc3c(c1C)COC3=O)CC2` [Example 96, 5-{(1R)-1-hydroxy-2-[(7S)-7-(methoxymethoxy)-9-(4-methyl-5-oxo-2,5-dihydrofuran-3-yl)-3,9-diazaspiro[5.5]undec-3-yl]ethyl}-4-methyl-2-benzofuran-1(3H)-one]: 132 nM; `Cc1c([C@H](O)CN2CCC3(CC2)CCN(C2=CC(=O)OC2)CC3)ccc2c1COC2=O` [Example 5, (S)-5-(1-hydroxy-2-(9-(5-oxo-2,5-dihydrofuran-3-yl)-3,9-diazaspiro[5.5]undecan-3-yl)ethyl)-4-methylisobenzofuran-1(3H)-one]: 63 nM. Next, `Cc1cc(-n2cnnn2)ccc1[C@@H](O)CN1CCC2(CC1)CCN(C1=CC(=O)OC1)CC2` [Example 24, (R)-4-(9-(2-hydroxy-2-(2-methyl-4-(1H-tetrazol-1-yl)phenyl)ethyl)-3,9-diazaspiro[5.5]undecan-3-yl)furan-2(5H)-one]: 40 nM.

`CC1=C(N2CCC3(CC2)CCN([C@H](CO)c2ccc(-n4cnnn4)cc2C)CC3)COC1=O` [Example 57, (S)-4-(9-(2-hydroxy-1-(2-methyl-4-(1H-tetrazol-1-yl)phenyl)ethyl)-3,9-diazaspiro[5.5]undecan-3-yl)-3-methylfuran-2(5H)-one]: it took 232 nM to reach half-maximal inhibition (IC50).
